Our source for the TGI and GI50 values is PubChem BioAssay (NCI).

Among the test systems are 786-0 renal; A498 renal; COLO 205 colon; HL-60(TB) leukemia; MOLT-4 leukemia; NCI-H226 lung; NCI-H460 lung; NCI/ADR-RES ovarian; RXF 393 renal; UACC-257 melanoma.
What all share (test): NCI anticancer screen, dose series, 48 h

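A five-concentration, 48-hour dose response in 96-well plates underlies each endpoint, interpolated linearly between surrounding concentrations. At the GI50, growth is halved. At the TGI there is no net growth.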 A value given as a limit tells only on which side of the number the result lay.

With `S=C1SCN(Cc2ccco2)CN1c1ccc(Br)cc1`, the TGI in the test on 786-0 renal stood at 33 µM; with A498 renal, 66.1 µM; in the test on COLO 205 colon it was 32 µM; in the test with HL-60(TB) leukemia, 45.8 µM; in the test with MOLT-4 leukemia it was 47.4 µM; in the test with NCI-H226 lung it was 69.1 µM. Besides, the TGI was 28.5 µM in the test on NCI-H460 lung, 77.6 µM in the test with NCI/ADR-RES ovarian, above 100 µM in the test on RXF 393 renal and 42.6 µM in the test on UACC-257 melanoma.
In the case of `CCOC(=O)c1nc2ccc(C(F)(F)F)cc2nc1Oc1cc(OC)cc(OC)c1`, the TGI in the test on 786-0 renal, in the test with A498 renal, in the test on COLO 205 colon, in the test with HL-60(TB) leukemia, in the test on MOLT-4 leukemia and in the test with NCI-H226 lung was above 100 µM each time. The TGI in the test with NCI-H460 lung, with NCI/ADR-RES ovarian, in the test with RXF 393 renal and in the test with UACC-257 melanoma was above 100 µM in each case.
`CC(=O)c1c(C(F)(F)F)n([O-])c2cc(Cl)c(Cl)cc2[n+]1=O`: the TGI in the test on 786-0 renal turned out to be 0.38 µM; in the test on A498 renal, 2.5 µM; in the test with COLO 205 colon, 2.11 µM; with HL-60(TB) leukemia, 1.43 µM; in the test on MOLT-4 leukemia it was 0.544 µM; with NCI-H226 lung it was 3.08 µM. The TGI in the test on NCI-H460 lung was determined as 0.852 µM; with NCI/ADR-RES ovarian it was 4.85 µM; in the test on RXF 393 renal it was 2.51 µM; in the test on UACC-257 melanoma it was 2.11 µM.
With `CCOC(=O)c1cnc2oc3ccc(O)cc3c2c1-c1ccccc1`, the TGI in the test on 786-0 renal, in the test with A498 renal, with COLO 205 colon, in the test with HL-60(TB) leukemia, in the test with MOLT-4 leukemia and in the test on NCI-H226 lung was above 100 µM each time. The TGI was above 100 µM in the test with NCI-H460 lung, 73.7 µM in the test with NCI/ADR-RES ovarian, above 100 µM in the test with RXF 393 renal and above 100 µM in the test on UACC-257 melanoma. In addition, the GI50 in the test with NCI/ADR-RES ovarian is 4.77 µM.
Take `O=c1[nH]nc(-c2ccccc2)n1/N=C/c1cccnc1`: the TGI in the test on 786-0 renal, with A498 renal, in the test with HL-60(TB) leukemia, in the test on MOLT-4 leukemia, with NCI-H226 lung and in the test on NCI-H460 lung was above 100 µM in each case. For the same compound, the TGI with NCI/ADR-RES ovarian, in the test on RXF 393 renal and in the test with UACC-257 melanoma was above 100 µM throughout.
With `C=C(C)C(O)C(O)c1c(OC)ccc2ccc(=O)oc12` (configuration not stated), the TGI with 786-0 renal, in the test on A498 renal, with COLO 205 colon, with HL-60(TB) leukemia, in the test with MOLT-4 leukemia and with NCI-H226 lung was above 100 µM each time. Further, the TGI with NCI-H460 lung, in the test on NCI/ADR-RES ovarian, in the test on RXF 393 renal and with UACC-257 melanoma was above 100 µM in each case.
For `CCCCCCCCCCCCCCCCCCNc1ccn(C2OC(COP(=O)(O)OCC3OC(n4cc(F)c(NCCCCCCCCCCCCCCCCCC)nc4=O)CC3O)C(O)C2O)c(=O)n1` (configuration not stated), the TGI with 786-0 renal, in the test with A498 renal, with COLO 205 colon, with HL-60(TB) leukemia, in the test on MOLT-4 leukemia and with NCI-H226 lung was above 100 µM throughout. Besides, the TGI with NCI-H460 lung, with NCI/ADR-RES ovarian, in the test with RXF 393 renal and with UACC-257 melanoma was above 100 µM in each case.
In the case of `CCNC(=O)c1cc(/C=C/c2ccc([N+](=O)[O-])o2)nc2ccccc12`, the TGI was above 100 µM with 786-0 renal; 71 µM in the test on A498 renal; above 84.2 µM with COLO 205 colon; above 100 µM in the test on HL-60(TB) leukemia; above 95.4 µM in the test with MOLT-4 leukemia; above 100 µM in the test with NCI-H226 lung. Besides, the TGI was 17.4 µM in the test with NCI-H460 lung, above 100 µM in the test on NCI/ADR-RES ovarian, above 100 µM in the test on RXF 393 renal and 28.2 µM in the test with UACC-257 melanoma.
In the case of `CSC1=N/C(=C\c2ccco2)C(=O)N1CN1CCOCC1`, the TGI with 786-0 renal was above 100 µM; in the test on A498 renal, above 100 µM; in the test on COLO 205 colon it was above 100 µM; with MOLT-4 leukemia, above 96.2 µM; with NCI-H226 lung it was above 100 µM; in the test on NCI-H460 lung, 27.7 µM. Also, the TGI is above 100 µM with NCI/ADR-RES ovarian, 44.6 µM in the test on RXF 393 renal and above 100 µM in the test with UACC-257 melanoma.
For `O=C(Nc1ccccc1)N(CCCCN(Cc1ccccc1)C(=O)Nc1ccccc1)Cc1ccccc1`, the TGI with 786-0 renal, with A498 renal, with COLO 205 colon, in the test on HL-60(TB) leukemia, with MOLT-4 leukemia and in the test on NCI-H226 lung was above 100 µM throughout. In addition, the TGI in the test on NCI-H460 lung, in the test on NCI/ADR-RES ovarian, in the test on RXF 393 renal and in the test on UACC-257 melanoma was above 100 µM throughout.
For the compound `O=C(Cn1c(C(=O)/C=C/c2cccs2)nc2ccccc21)c1ccc(Cl)cc1`, the TGI was 32.8 µM in the test on 786-0 renal; 57.9 µM in the test on A498 renal; 38.3 µM with COLO 205 colon; 61.3 µM in the test with HL-60(TB) leukemia; above 100 µM in the test with NCI-H226 lung; 25.8 µM in the test on NCI-H460 lung. Also, the TGI was 38.4 µM in the test on NCI/ADR-RES ovarian, above 100 µM in the test with RXF 393 renal and 58.1 µM in the test on UACC-257 melanoma.
Take `Cc1ccc2c(c1C)C(=O)/C(=C/c1ccccc1C(=O)O)C2`: the TGI in the test on 786-0 renal, in the test on A498 renal, in the test with COLO 205 colon, in the test with HL-60(TB) leukemia, with MOLT-4 leukemia and in the test with NCI-H226 lung was above 100 µM throughout. Also, the TGI in the test on NCI-H460 lung, with NCI/ADR-RES ovarian, in the test on RXF 393 renal and with UACC-257 melanoma was above 100 µM in each case.
Turning to `O=c1cc(N2CCN(c3cc(=O)n4ccccc4n3)CC2)oc2ccccc12`, the TGI in the test on 786-0 renal, with A498 renal, with COLO 205 colon, in the test with MOLT-4 leukemia, with NCI-H226 lung and with NCI-H460 lung was above 100 µM each time. For the same compound, the TGI in the test with NCI/ADR-RES ovarian is above 100 µM; in the test on RXF 393 renal it was above 100 µM; in the test with UACC-257 melanoma, above 71.8 µM.
